# According to patent US20110212116A1, “IMMUNOGENIC PEPTIDES AND USES THEREOF” (Cancer Research Technology Limited, priority 2008, published 2011):
# Entries after “also recorded” stand apart in the source; their conditions may differ.
# How the values were obtained:
# [1] = system: healthy donor CD8+ T cells; experiment: Pentamer staining, healthy donor CD3+ cells stimulated with peptide pulsed DCs; type: cell-based, human; settings: two of four normal donors, after four stimulations
# Experimental: (§1) Assessment of peptide specific T cells was carried out by staining 10^6 effector cells with 10 μl of PE labeled, HLA-A*0201 pentamers (custom made by Proimmune) for 10 minutes, at room temperature, in the dark. Cells were then washed and co-stained with CD8-FITC for 20 minutes at room temperature. The lymphocyte gate was selected according to FSSCH/SSCH and 50,000 events acquired. Staining with control pentamers was carried out for each sample.
# After 24 hours in maturation cytokines, DCs were incubated with peptide (50 μg/ml) for 4 hours. PBMCs or CD3^+ cells from healthy donors or patients with solid tumours were seeded into a 12-well plate, in X-VIVO 15 at a density of 2×10^6/ml. Peptide pulsed, monocyte derived DCs were washed and prepared at 2×10^5/ml. PBMC cultures received peptide pulsed DCs at a stimulator:effector ratio of […], or in the case of unstimulated controls, medium only. IL-7 was added to cultures at a final concentration of 10 U/ml on day 3. Cultures were restimulated by addition of peptide pulsed DCs on, day 7, and in some cases day 14, together with IL-7 and IL-2 (both at 10 U/ml). […] Culture supernatants were analysed for IFNγ content by ELISA. After the 2-3 week culture period, stimulated effector cells were washed and analysed by pentamer staining, intracellular cytokine staining or ELISPOT assays. […]
# [2] = system: solid tumour patient CD8+ T cells; experiment: Pentamer staining, solid tumour patient CD3+ T cells stimulated with peptide loaded autologous DCs; type: cell-based, human
# Experimental: as §1
# (§2) After 24 hours in maturation cytokines, DCs were incubated with peptide (50 μg/ml) for 4 hours. PBMCs or CD3^+ cells from healthy donors or patients with solid tumours were seeded into a 12-well plate, in X-VIVO 15 at a density of 2×10^6/ml. Peptide pulsed, monocyte derived DCs were washed and prepared at 2×10^5/ml. PBMC cultures received peptide pulsed DCs at a stimulator:effector ratio of […], or in the case of unstimulated controls, medium only. IL-7 was added to cultures at a final concentration of 10 U/ml on day 3. Cultures were restimulated by addition of peptide pulsed DCs on, day 7, and in some cases day 14, together with IL-7 and IL-2 (both at 10 U/ml). 200 μl of culture supernatants were collected at various intervals throughout the culture period and replaced with fresh medium. In the case of AML patient cultures, T2 cells were pulsed with peptide and used as stimulators in the same way as autologous DCs described above. Culture supernatants were analysed for IFNγ content by ELISA. After the 2-3 week culture period, stimulated effector cells were washed and analysed by pentamer staining, intracellular cytokine staining or ELISPOT assays.
# There have been no reports of PASD1 expression in primary head and neck, prostate or colon cancer primary cells to date, but the head and neck cancer cell line Hn5^19, the lung cancer line H1299^19 and the colon cancer cell line SW480^24 are PASD1 positive. This raises the possibility that some solid cancer patients may be able to raise a response to the PASD1 peptides. Cells used in these experiments were isolated from leukophoresis samples taken several months after the cessation of treatment. Negatively purified CD3^+ T cells were stimulated with autologous monocyte derived DCs as described previously. Pentamer analysis was carried out after each stimulation.
# healthy donor T cells = experiment: IFNγ ELISA of healthy donor T cells stimulated with peptide loaded autologous DCs; type: cell-based, human
# Experimental: PBMCs were prepared from healthy donor buffy coats as described above. Monocytes were obtained from newly sourced buffy coats, or cells thawed at 10^6/ml in warm X-VIVO medium, 1% human AB serum and plated in 90 mm TC dishes. Plates were incubated at 37° C. for at least 4 hours and non adherent cells removed by gently washing with media or HBSS or CD14^+ cells were positively selected as described. The remaining T cell enriched cells were cryopreserved for use as effectors in later assays. The CD14^+ fraction/adherent cells were cultured in IL-4 (1000 IU/ml) and GM-CSF (800 U/ml) for 5 days to induce differentiation to a dendritic cell (DC) phenotype. On day 3 fresh IL-4 and GM-CSF were added. On day 5 TNFα (10 ng/ml), IL-6 (1000 U/ml) and IL-1β (10 ng/ml) all from R&D systems UK and PGE2 (1 μg/ml) (from Sigma, UK) were added to plates. On day 6 DCs were harvested from plates and washed with HBSS to remove residual cytokines before use in immunological experiments. Analysis of DC phenotype was carried out by flow cytometry.
# IL-2 and IFNγ levels were determined with Duo set ELISA Development System (R&D Systems), according to the manufacturer's instructions. Supernatants were collected at various time points (days 3, 7, 10 and 14) in order to detect peak cytokine levels.
# as §2
# patient T cells = experiment: IFNγ secretion by patient T cells following in vitro peptide stimulation; type: cell-based, human
# Experimental: FIG. 4. IFNγ secretion by patient T cells following in vitro stimulations. (A) IFNγ levels in peptide stimulated cultures from AML patients (same as shown in FIGS. 3 B and E) as measured by ELISpot assays. […] Graphs show IFNγ levels at day 10 (y-axis).
# as §2
# (§3) The T2 line was first examined for immune stimulatory molecules by FACS analysis. […] T2 cells were cultured in serum free conditions to reduce the non-human antigens present in the FCS. T2 cells were incubated with peptide for 4 hours, washed and irradiated and seeded in 96 well plates. Purified T cells (Miltenyi) from patients were added and IFNγ secretion or the expansion of CD8^+ epitope specific T cells measured using pentamers.
# healthy donor CD3+ cells = experiment: Intracellular IFNγ staining of peptide stimulated CD3+ cultures; type: cell-based, human; settings: after three stimulations, CD4 or CD8 co-staining
# Experimental: For detection of IFNγ, Brefeldin A was added to T cells 12 hours prior to intracellular staining, to a final concentration of […]. Effector cells were washed with PBS and stained with CD8-PE or CD4-PE antibody for 30 minutes at room temperature. Stained cells were then washed twice with HBSS, and resuspended in the residual volume. 100 μl of fixation solution (Caltag Laboratories, UK) was added to each tube and samples incubated for 15 minutes at room temperature. Cells were then washed with cold HBSS, 1% FBS 0.1% sodium azide and resuspended in the residual volume. 100 μl of permeabilisation medium (Caltag Laboratories) and 5 μl of IFNγ-FITC was added to each tube, and incubated for 20 mins at room temperature. Finally, cells were washed and resuspended in 300-500 μl HBSS ready for FACS analysis. All antibodies and isotype controls were purchased from (Becton Dickinson, Oxford, UK) except HLA-A2 (from Serotec).
# After 24 hours in maturation cytokines, DCs were incubated with peptide (50 μg/ml) for 4 hours. PBMCs or CD3^+ cells from healthy donors or patients with solid tumours were seeded into a 12-well plate, in X-VIVO 15 at a density of 2×10^6/ml. […] Culture supernatants were analysed for IFNγ content by ELISA. After the 2-3 week culture period, stimulated effector cells were washed and analysed by pentamer staining, intracellular cytokine staining or ELISPOT assays.
# HHD mice = experiment: Mouse IFNγ-ELISpot after pDOM-epitope DNA vaccination; settings: mouse, in vivo
# Experimental: HHD mice at 6 to 10 weeks of age were injected intramuscularly (i.m.) into both quadriceps with a total of 50 μg DNA in saline solution on day 0. Unless stated otherwise mice were boosted with the same DNA vaccine delivered with in vivo electroporation on day 28 as previously described^5.
# Vaccine-specific IFNγ secretion by lymphocytes from individual mice was assessed ex vivo (BD ELISpot Set, BD PharMingen, San Diego, Calif.) on day 14 or 36, as described previously with some modifications^11. Briefly, viable lymphocytes were selected from splenocyte preparations by density centrifugation. […] Data are expressed as the frequency of spot-forming cells (SFCs) per million lymphocytes. For analysis of peptide-specific T-cell sensitivity, splenic lymphocytes from immunized mice were incubated with a range of PASD1 peptide concentrations and the frequency of specific cells assessed by ELISpot analysis as described. The number of SFC/million cells at the peptide concentration inducing the greatest response was assigned a value of 100%. For each peptide concentration tested the % maximal response was then calculated by the formula: (experimental SFCs per million cells/maximal SFCs per million cells)×100% for each individual animal.
# AML patient CD8+ T cells = experiment: Pentamer staining, AML patient CD3+ T cells stimulated with peptide loaded T2 cells; type: cell-based, human; settings: for P14 pentamer positive cells of the CD8+ cells: after P14 peptide stimulation
# Experimental: as §1, §2, §3
# Prior to each restimulation, cells were resuspended and aliquots taken for pentamer staining.
substance,measurement,setting,value
"P14: modified PASD1 peptide, SEQ ID NO 21, derivative of wild type peptide P8 (RLWQELSDI; Synthetic sequence amino acid sequence p14)",Pentamer positive T cells,[1],small population
same,"P14 pentamer positive cells, frequency of the CD8+ T cell population","[2]; colon cancer patient, fourth stimulation",13.6%
same,"P14 pentamer positive cells, frequency of CD8+ cells","[2]; colon cancer patient, stimulation with DCs alone, corrected for control pentamer",0.09%
same,"P14 pentamer positive cells, frequency of CD8+ T cells","[2]; colon cancer patient, three rounds of P14 peptide stimulation",0.11%
same,"Pentamer positive cells, frequency of CD8+ cells","[2]; head and neck patient, absence of peptide stimulation",0.02%
same,"Pentamer positive cells, frequency of the CD8+ population","[2]; head and neck patient, after peptide stimulation (P15: three rounds)",not expanded
same,Pentamer positive cells,"[2]; prostate cancer patient, up to four stimulations",No pentamer positive cells were detected
same,Secretion of IFNγ in cultures of CD4+ depleted effector cells,healthy donor T cells; CD4+ depleted effector cells,almost completely abolished
same,IFNγ production from normal donor T cells,"healthy donor T cells; modified peptides P11-P16, six normal donors",highest levels
same,IFNγ secretion by expanded P14-specific T cell populations,patient T cells; AML Patient I and II,IFNγ was secreted
same,Specific IFNγ secretion by ELISpot,patient T cells; colon cancer patient T cells stimulated with peptide,detectable
same,Phenotype of the IFNγ secreting cells,healthy donor CD3+ cells,IFNγ secreting cells were CD8+
same,IFNγ secretion (ELISpot) against the peptide of the immunisation,HHD mice,leads to an IFNγ response
same,Pentamer positive cells,"AML patient CD8+ T cells; AML Patient 3 (remission) and Patient 4 (non remission), after three stimulations",no pentamer positive cells were detected
same,P14 pentamer positive cells of the CD8+ cells,AML patient CD8+ T cells; AML Patient I,0.5%
same,P14 pentamer positive cells of the CD8+ cells,AML patient CD8+ T cells; AML Patient II,0.09%
same,"Pentamer positive cells, frequency of the CD8+ T cells","AML patient CD8+ T cells; AML patients, absence of peptide stimulation",not detectable above background levels; also recorded: undetectable
same,"Pentamer positive cells, frequency of the CD8+ cells","AML patient CD8+ T cells; AML patients, after two rounds of ex vivo stimulation",0.02%
